Experiments:
[1] = molecular target: T1, H1 histaminergic receptors (Rattus norvegicus, UniProt P31390); experiment: Affinity towards H1 histaminergic receptors ([3H]Mepyramine displacement); settings: homogenates of rat brain, 25° C., 15 minutes, pH 7.5, read-out: H1-receptor binding Ki
T1 construct: in homogenates of rat brain; from tissue; host or cells: rat whole brain homogenate
Protocol: The incubation was performed at 25° C. for 15 minutes, in a final volume of 1 ml of 50 mM Na/K phosphate buffer, pH 7.5, in the presence of […][^3 H]Mepyramine and 1.5 mg of cerebral protein.
The test compounds were dissolved in phosphate buffer or dimethylsulfoxide (DMSO), the final concentration of DMSO was 0.5%. Incubation was terminated by filtration through glass fiber GF/B filters pre-soaked with 0.1% polyethylenimine (PEI); the radioactivity trapped by filters was counted by liquid scintillation.

[2] = system: mortality induced by histamine; experiment: Effect on the mortality induced by histamine; format: in vivo, male albino guinea pigs (Dunkin-Hartley); settings: Cavia porcellus, po; guinea pigs, os, 60 minutes before 1,25 mg/kg i.v. histamine dihydrochloride; parentheses: range
Protocol: The method described by Romer D. et al. (Med.Welt, 17, 791, 1966) was followed and the tests were carried out on male albino guinea pigs (Dunkin-Hartley), weighing 350-450 g, which were kept in cages with a grid floor, on an empty stomach for 24 hrs with water ad libitum.
The compounds under examination were dissolved in 0,5% carboxymethylcellolose and orally administered to the animals; 60 minutes later the same animals were intravenously treated with 1,25 mg/kg of histamine dihydrochloride in saline solution.
It was evaluated ED50 which corresponds to the amount of the compound able to inhibit 50% of the mortality induced by histamine: the estimation of ED50 was carried out applying the `probit` method (Finney D. J., Statistical methods in biological assay, pg 512, 1957).

[3] = Acute toxicity (LD50); settings: mouse, in vivo, ip; mice, 14 days observation
Protocol: The Letal Dose50 (LD50) was evaluated on mice using Swiss-Nos (Nossan, Correzzana, Milano) mice weighing 18-20 g each. The animals, divided into groups of 10 animals each (5M +5F), were on an empty stomach for 18 hrs, with water ad libitum, and kept in cages with grid floor. The compounds (I) were dissolved in water or suspended in 0.5% carboxymethylcellulose and intraperitoneally administered to the animals (10 ml/kg). The mortality occured in the tested animals within the following 6 hours was noted down. At the expiry of the 6th hour, the animals were allowed to eat up to the end of the experimentation which lasted 14 days. During this period all the toxic symptoms and the mortality occuring were noted.
The animals which died during the test period and those which were sacrificed at the end of the same, underwent autopsy for a macroscopic examination of their main organs. The experimental data were statistically compared with the X^2 method and LD50 was extrapolated by the `probit` method.

[4] = system: sleeping time induced by sodium pentobarbital; experiment: Effect on the sleeping time interval induced by pentobarbital; format: in vivo, male mice Swiss-Nos; design: key: IN: inactive at the dose of 100 mg/kg i.p; settings: mice, i.p., 30 minutes before 40 mg/kg i.p. sodium pentobarbital; ED100 = doubles the sleeping time vs control
Protocol: The tests were carried out on male mice Swiss-Nos (Nossan, Correzzana, Milano) weighing 20-24 g, on an empty stomach for 18 hrs, according to the method described by Turner (Screening Methods in Pharmacology, Acad. Press, pg 70,1965). The sleep was induced by intraperitoneal administration of 40 mg/kg sodium pentobarbital. The narcosis start was considered from the moment when the animal, lying on its back, lost its straightening reflex. The narcosis end was considered from the moment when the animal recovered such reflex. The carrier or the compounds under examination were intraperitoneally administered 30 minutes before the pentobarbital administration. The resulting data are expressed as sleeping time increase per cent of the treated animals in comparison with the controls.

T1 sequence (P31390 whole entry): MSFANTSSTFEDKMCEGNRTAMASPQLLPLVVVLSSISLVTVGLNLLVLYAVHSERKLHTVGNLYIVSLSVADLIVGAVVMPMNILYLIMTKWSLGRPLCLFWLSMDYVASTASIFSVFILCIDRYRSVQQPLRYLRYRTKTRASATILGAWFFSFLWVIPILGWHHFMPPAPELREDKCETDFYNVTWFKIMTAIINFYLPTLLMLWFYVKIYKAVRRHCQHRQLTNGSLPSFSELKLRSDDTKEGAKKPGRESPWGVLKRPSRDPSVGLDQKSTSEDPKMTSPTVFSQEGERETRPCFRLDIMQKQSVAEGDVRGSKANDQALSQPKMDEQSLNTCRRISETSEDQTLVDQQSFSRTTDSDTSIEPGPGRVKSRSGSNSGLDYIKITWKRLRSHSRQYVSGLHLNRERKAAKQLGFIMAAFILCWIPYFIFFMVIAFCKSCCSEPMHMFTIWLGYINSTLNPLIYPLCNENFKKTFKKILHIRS

Structure (SMILES) | Ki [1] | ED50 [2] | LD50 at 336 h [3] | sleeping time % increase ED100 [4]
CCOCCn1c(CCCN(C)C)nc2ccccc21 [Example 1, 1-(2-Ethoxyethyl)-2-(3-dimethylaminopropyl)benzimidazole] | 5.8 nM | 0.00454 mg/kg | 250 mg/kg | IN
CN(C)CCCc1nc2ccccc2n1Cc1ccc(F)cc1 [Example 6, 1-(4-fluorobenzyl)-2-(3-dimethylaminopropyl)benzimidazole] | 6.1 nM | 0.026 mg/kg | > 100 mg/kg | IN
CCOCCn1c(CCN(C)C)nc2ccccc21 [Example 9, 1-(2-Ethoxyethyl)-2-(2-dimethylaminoethyl)benzimidazole] | 6.1 nM | 0.00501 mg/kg | > 100 mg/kg | IN
CC(C)(C)c1ccc(C(O)CCCN2CCC(C(O)(c3ccccc3)c3ccccc3)CC2)cc1 (centres unmarked) [Terfenadine, reference compound] |  | 0.179 mg/kg | > 100 mg/kg | 

Reference: patent publication US4971980A, “Pharmacologically active benzimidazole derivatives” (Dompe Farmaceutici S.p.A., priority 1988, dated 1990)
